Reference: patent US20150344540A1, “NOVEL GLP-1 RECEPTOR AGONISTS WITH CHOLESTEROL EFFLUX ACTIVITY” (NOVO NORDISK A/S, priority 2012, published 2015)
Read-outs that look alike come from different tables or passages of the source. Where a SMILES comes first, the peptide text is derived from it. [ ]: non-standard residue; d: D form. Aib = CC(C)(N)C(=O)O

What was measured:
[1] = test system: Mouse monocyte/macrophage cell line, RAW 264.7; experiment: Cholesterol efflux assay (3H-cholesterol, macrophage cell line); format: cell-based; settings: RAW 264.7, 4 hrs incubation, 0.1% human serum albumin; for 4 h Cholesterol Efflux Emax: ABCA1-mediated efflux
[2] = biological target: human GLP-1 receptor (Homo sapiens, UniProt P43220); experiment: Functional GLP-1 receptor assay, in vitro potency (CRE luciferase; whole cells); format: cell-based
human GLP-1 receptor, sequence (P43220 24-463): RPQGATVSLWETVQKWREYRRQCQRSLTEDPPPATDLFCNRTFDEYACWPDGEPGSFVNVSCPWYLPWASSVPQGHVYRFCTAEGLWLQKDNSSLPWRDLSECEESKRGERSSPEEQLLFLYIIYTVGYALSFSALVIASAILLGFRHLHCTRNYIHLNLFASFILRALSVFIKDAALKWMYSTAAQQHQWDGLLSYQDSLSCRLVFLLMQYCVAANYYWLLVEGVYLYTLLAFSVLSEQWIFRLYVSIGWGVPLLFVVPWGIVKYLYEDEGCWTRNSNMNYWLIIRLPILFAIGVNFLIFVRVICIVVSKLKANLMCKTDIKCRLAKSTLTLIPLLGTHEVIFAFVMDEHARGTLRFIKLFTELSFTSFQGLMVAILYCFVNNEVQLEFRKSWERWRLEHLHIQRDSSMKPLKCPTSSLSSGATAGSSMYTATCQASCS

[3] = BHK cells expressing human GLP-1 receptor, 0% HSA, read-out: GLP1R CRE luc 0% HSA EC50 Mean Value
[4] = GLP1R CRE luc 1% HSA EC50 Mean Value, BHK cells expressing human GLP-1 receptor, 1% HSA

Compound	4 h Cholesterol Efflux Emax [1]	EC50 [2, 3]	EC50 [2, 4]	EC50 ([1]; read-out: 4 h Cholesterol Efflux EC50, ABCA1-mediated efflux (CPT-cAMP induced minus non-induced))	EC50 ([2]; GLP1R CRE luc 1% HSA EC50 Mean Value)
CC[C@H](C)[C@H](NC(=O)[C@H](Cc1ccccc1)NC(=O)[C@H](CCC(=O)O)NC(=O)[C@H](CCCCN)NC(=O)[C@@H](NC(=O)[C@H](C)NC(=O)[C@H](CCC(=O)O)NC(=O)CNC(=O)[C@H](CCC(=O)O)NC(=O)[C@H](CC(C)C)NC(=O)[C@H](Cc1ccc(O)cc1)NC(=O)[C@H](CO)NC(=O)[C@H](CO)NC(=O)[C@@H](NC(=O)[C@H](CC(=O)O)NC(=O)[C@H](CO)NC(=O)[C@@H](NC(=O)[C@H](Cc1ccccc1)NC(=O)[C@@H](NC(=O)CNC(=O)[C@H](CCC(=O)O)NC(=O)C(C)(C)NC(=O)[C@@H](N)Cc1c[nH]cn1)[C@@H](C)O)[C@@H](C)O)C(C)C)C(C)C)C(=O)N[C@@H](C)C(=O)N[C@@H](Cc1c[nH]c2ccccc12)C(=O)N[C@@H](CC(C)C)C(=O)N[C@H](C(=O)N[C@@H](CCC(=O)O)C(=O)N[C@@H](CCCCN)C(=O)NCC(=O)N[C@@H](CCCCN)C(=O)N[C@@H](CCC(=O)O)C(=O)N[C@@H](Cc1ccccc1)C(=O)N[C@@H](CC(C)C)C(N)=O)C(C)C [Compound 113, [Aib8,Glu23,Val25,Glu34,Lys35,Gly36,Lys37]-GLP-1-(7-37)-peptidyl-Glu-Phe-Leu amide] (H-H[Aib]EGTFTSDVSSYLEGEAVKEFIAWLVEKGKEFL-NH2)	143%	0.034 nM	–	–	–
CC[C@H](C)[C@H](NC(=O)[C@H](Cc1ccccc1)NC(=O)[C@H](CCC(=O)O)NC(=O)[C@H](CCCNC(=N)N)NC(=O)[C@@H](NC(=O)[C@H](C)NC(=O)[C@H](CCC(=O)O)NC(=O)CNC(=O)[C@H](CCC(=O)O)NC(=O)[C@H](CC(C)C)NC(=O)[C@H](Cc1ccc(O)cc1)NC(=O)[C@H](CO)NC(=O)[C@H](CO)NC(=O)[C@@H](NC(=O)[C@H](CC(=O)O)NC(=O)[C@H](CO)NC(=O)[C@@H](NC(=O)[C@H](Cc1ccccc1)NC(=O)[C@@H](NC(=O)CNC(=O)[C@H](CCC(=O)O)NC(=O)C(C)(C)NC(=O)[C@@H](N)Cc1c[nH]cn1)[C@@H](C)O)[C@@H](C)O)C(C)C)C(C)C)C(=O)N[C@@H](C)C(=O)N[C@@H](Cc1c[nH]c2ccccc12)C(=O)N[C@@H](CC(C)C)C(=O)N[C@H](C(=O)N[C@@H](CCC(=O)O)C(=O)N[C@@H](CCCCN)C(=O)NC(C)(C)C(=O)N[C@@H](CCCCN)C(=O)N[C@@H](CCC(=O)O)C(=O)N[C@@H](Cc1ccccc1)C(=O)N[C@@H](CC(C)C)C(N)=O)C(C)C [Compound 81] (H-H[Aib]EGTFTSDVSSYLEGEAVREFIAWLVEK[Aib]KEFL-NH2)	112%	0.076 nM	0.028 nM	–	–
H-HAEGTFTSDVSSYLEGQAAKEFIAWLVEKVKEFLER-OH [Compound 130, [Glu34,Lys35,Val36,Lys37]-GLP-1-(7-37)-peptidyl-Glu-Phe-Leu-Glu-Arg]	125%	0.034 nM	0.011 nM	–	–
H-HAEGTFTSDVSSYLEGEAVREFIAWLVHRVREFLEK-OH [Compound 139]	104%	0.039 nM	0.014 nM	–	–
CC[C@H](C)[C@H](NC(=O)[C@H](Cc1ccccc1)NC(=O)[C@H](CCC(=O)O)NC(=O)[C@H](CCCCN)NC(=O)[C@@H](NC(=O)[C@H](C)NC(=O)[C@H](CCC(=O)O)NC(=O)CNC(=O)[C@H](CCC(=O)O)NC(=O)[C@H](CC(C)C)NC(=O)[C@H](Cc1ccc(O)cc1)NC(=O)[C@H](CO)NC(=O)[C@H](CO)NC(=O)[C@@H](NC(=O)[C@H](CC(=O)O)NC(=O)[C@H](CO)NC(=O)[C@@H](NC(=O)[C@H](Cc1ccccc1)NC(=O)[C@@H](NC(=O)CNC(=O)[C@H](CCC(=O)O)NC(=O)C(C)(C)NC(=O)[C@@H](N)Cc1c[nH]cn1)[C@@H](C)O)[C@@H](C)O)C(C)C)C(C)C)C(=O)N[C@@H](C)C(=O)N[C@@H](Cc1c[nH]c2ccccc12)C(=O)N[C@@H](CC(C)C)C(=O)N[C@H](C(=O)N[C@@H](CCC(=O)O)C(=O)NCC(=O)NC(C)(C)C(=O)N[C@@H](CCCCN)C(=O)N[C@@H](CCC(=O)O)C(=O)N[C@@H](Cc1ccccc1)C(=O)N[C@@H](CC(C)C)C(N)=O)C(C)C [Compound 30, [Aib8,Glu23,Val25,Glu34,Aib36,Lys37]-GLP-1-(7-37)-peptidyl-Glu-Phe-Leu amide] (H-H[Aib]EGTFTSDVSSYLEGEAVKEFIAWLVEG[Aib]KEFL-NH2)	75%	0.034 nM	0.013 nM	–	–
CC(C)C[C@H](NC(=O)[C@H](Cc1ccccc1)NC(=O)[C@H](CCC(=O)O)NC(=O)[C@H](CCCCN)NC(=O)C(C)(C)NC(=O)[C@H](CCCCN)NC(=O)[C@H](CCC(=O)O)NC(=O)[C@@H](NC(=O)[C@H](CC(C)C)NC(=O)[C@H](Cc1c[nH]c2ccccc12)NC(=O)[C@H](CCC(N)=O)NC(=O)[C@@H](NC(=O)[C@H](Cc1ccccc1)NC(=O)[C@H](CCC(=O)O)NC(=O)[C@H](CCCCN)NC(=O)[C@@H](NC(=O)[C@H](C)NC(=O)[C@H](CCC(=O)O)NC(=O)CNC(=O)[C@H](CCC(=O)O)NC(=O)[C@H](CC(C)C)NC(=O)[C@H](Cc1ccc(O)cc1)NC(=O)[C@H](CO)NC(=O)[C@H](CO)NC(=O)[C@@H](NC(=O)[C@H](CC(=O)O)NC(=O)[C@H](CO)NC(=O)[C@@H](NC(=O)[C@H](Cc1ccccc1)NC(=O)[C@@H](NC(=O)CNC(=O)[C@H](CCC(=O)O)NC(=O)C(C)(C)NC(=O)[C@@H](N)Cc1c[nH]cn1)[C@@H](C)O)[C@@H](C)O)C(C)C)C(C)C)C(C)C)C(C)C)C(N)=O [Compound 65, [Aib8,Glu23,Val25,Val29,Gln30,Glu34,Lys35,Aib36,Lys37]-GLP-1-(7-37)-peptidyl-Glu-Phe-Leu amide] (H-H[Aib]EGTFTSDVSSYLEGEAVKEFVQWLVEK[Aib]KEFL-NH2; N-terminus assumed)	96%	–	–	410 nM	0.037 nM
CC[C@H](C)[C@H](NC(=O)[C@H](Cc1ccccc1)NC(=O)[C@H](CCC(=O)O)NC(=O)[C@H](CCCNC(=N)N)NC(=O)[C@@H](NC(=O)[C@H](C)NC(=O)[C@H](CCC(=O)O)NC(=O)[C@H](CCC(=O)O)NC(=O)[C@H](CCC(=O)O)NC(=O)[C@H](CCSC)NC(=O)[C@H](CCC(N)=O)NC(=O)[C@H](CCCCN)NC(=O)[C@H](CO)NC(=O)[C@H](CC(C)C)NC(=O)[C@H](CC(=O)O)NC(=O)[C@H](CO)NC(=O)[C@@H](NC(=O)[C@H](Cc1ccccc1)NC(=O)[C@@H](NC(=O)CNC(=O)[C@H](CCC(=O)O)NC(=O)C(C)(C)NC(=O)[C@@H](N)Cc1c[nH]cn1)[C@@H](C)O)[C@@H](C)O)C(C)C)C(=O)N[C@@H](CCC(=O)O)C(=O)N[C@@H](Cc1c[nH]c2ccccc12)C(=O)N[C@@H](CC(C)C)C(=O)N[C@@H](CCCCN)C(=O)N[C@@H](CC(N)=O)C(=O)NCC(=O)NC(C)(C)C(=O)N[C@@H](CC(C)C)C(=O)N[C@@H](CCC(=O)O)C(=O)N[C@@H](Cc1ccccc1)C(=O)N[C@@H](CC(C)C)C(=O)N[C@@H](CCC(=O)O)C(=O)N[C@@H](CC(C)C)C(=O)N[C@@H](CC(C)C)C(N)=O [Compound 34, [Aib2,Glu21,Aib30,Leu31,Glu32,Phe33,Leu34,Glu35,Leu36,Leu371-Exendin-4-(1-37)-peptide amide] (H-H[Aib]EGTFTSDLSKQMEEEAVREFIEWLKNG[Aib]LEFLELL-NH2; N-terminus assumed)	94%	–	0.032 nM	–	–
CC[C@H](C)[C@H](NC(=O)[C@H](Cc1ccccc1)NC(=O)[C@H](CCC(=O)O)NC(=O)[C@H](CCCCN)NC(=O)[C@@H](NC(=O)[C@H](C)NC(=O)[C@H](CCC(=O)O)NC(=O)CNC(=O)[C@H](CCC(=O)O)NC(=O)[C@H](CC(C)C)NC(=O)[C@H](Cc1ccc(O)cc1)NC(=O)[C@H](CO)NC(=O)[C@H](CO)NC(=O)[C@@H](NC(=O)[C@H](CC(=O)O)NC(=O)[C@H](CO)NC(=O)[C@@H](NC(=O)[C@H](Cc1ccccc1)NC(=O)[C@@H](NC(=O)CNC(=O)[C@H](CCC(=O)O)NC(=O)C(C)(C)NC(=O)[C@@H](N)Cc1c[nH]cn1)[C@@H](C)O)[C@@H](C)O)C(C)C)C(C)C)C(=O)N[C@@H](C)C(=O)N[C@@H](Cc1c[nH]c2ccccc12)C(=O)N[C@@H](CC(C)C)C(=O)N[C@H](C(=O)N[C@@H](CCC(=O)O)C(=O)N[C@@H](CCCCN)C(=O)NC(C)(C)C(=O)N[C@@H](CCCCN)C(=O)N[C@@H](CCC(=O)O)C(=O)N[C@@H](Cc1ccccc1)C(=O)N[C@@H](CC(C)C)C(=O)N[C@@H](CCC(=O)O)C(N)=O)C(C)C [Compound 66, [Aib8,Glu23,Val25,Glu34,Lys35,Aib36,Lys37]-GLP-1-(7-37)-peptidyl-Glu-Phe-Leu-Glu amide]	102%	0.101 nM	0.039 nM	–	–
CC[C@H](C)[C@H](NC(=O)[C@H](Cc1ccccc1)NC(=O)[C@H](CCC(=O)O)NC(=O)[C@H](CCCCN)NC(=O)[C@@H](NC(=O)[C@H](C)NC(=O)[C@H](CCC(=O)O)NC(=O)CNC(=O)[C@H](CCC(=O)O)NC(=O)[C@H](CC(C)C)NC(=O)[C@H](Cc1ccc(O)cc1)NC(=O)[C@H](CO)NC(=O)[C@H](CO)NC(=O)[C@@H](NC(=O)[C@H](CC(=O)O)NC(=O)[C@H](CO)NC(=O)[C@@H](NC(=O)[C@H](Cc1ccccc1)NC(=O)[C@@H](NC(=O)CNC(=O)[C@H](CCC(=O)O)NC(=O)C(C)(C)NC(=O)[C@@H](N)Cc1c[nH]cn1)[C@@H](C)O)[C@@H](C)O)C(C)C)C(C)C)C(=O)N[C@@H](C)C(=O)N[C@@H](Cc1c[nH]c2ccccc12)C(=O)N[C@@H](CC(C)C)C(=O)N[C@H](C(=O)N[C@@H](CCC(=O)O)C(=O)N[C@@H](CCCCN)C(=O)NC(C)(C)C(=O)N[C@@H](CCCCN)C(=O)N[C@@H](Cc1c[nH]cn1)C(=O)N[C@@H](Cc1ccccc1)C(=O)N[C@@H](CC(C)C)C(N)=O)C(C)C [Compound 31, [Aib8,Glu23,Val25,Glu34,Lys35,Aib36,Lys37]-GLP-1-(7-37)-peptidyl-His-Phe-Leu amide] (H-H[Aib]EGTFTSDVSSYLEGEAVKEFIAWLVEK[Aib]KHFL-NH2)	84%	–	0.062 nM	–	–
